In brackets after ≈: the same amount, converted by molar mass.
Assays:
Host = assay: Growth inhibition, MTT colorimetric assay, Host; format: cell-based; conditions: 72 h; 3 days with drug; means of six values; unit inferred; read-out: IC50 Host
Summary of the method: (§1)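 Growth inhibition: cells cultured with drug 3 days, then MTT colorimetric readout. Cytotoxic activity given as IC50.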

T98G (glioblastoma) = assay: cells; format: cell-based; conditions: Homo sapiens, T98G, 72 h; glioma; 3 days with drug; means of six values; unit inferred; read-out: IC50 T98G
Summary of the method: (§2)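 Human tumour cell lines were exposed to compounds for 3 days. Proliferation inhibition was read by MTT colorimetric assay and expressed as IC50. Values are means of six determinations.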

[1] = system: bloodstream forms of T. brucei and T. congolense; assay: Trypanocidal activity in vitro, Alamar Blue assay; format: cell-based, Trypanosoma brucei and T. congolense; conditions: 48 h total incubation
Summary of the method: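 Bloodstream-form trypanosomes exposed to compounds in H2O for 24 h, then Alamar Blue added for a further 24 h (48 h total). Absorbance read at 550 nm with 630 nm reference; duplicate wells, three repeats. HL-60 cytotoxicity run alongside: 43 h plus 5 h dye.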

PPARγ = biological target: T1, PPARγ (Homo sapiens, UniProt P37231); assay: PPAR in vitro cellular (transactivation) assay in MCF-7 cells; format: cell-based
T1 construct: endogenous in cells; host or cells: MCF-7
T1 sequence (P37231 whole entry): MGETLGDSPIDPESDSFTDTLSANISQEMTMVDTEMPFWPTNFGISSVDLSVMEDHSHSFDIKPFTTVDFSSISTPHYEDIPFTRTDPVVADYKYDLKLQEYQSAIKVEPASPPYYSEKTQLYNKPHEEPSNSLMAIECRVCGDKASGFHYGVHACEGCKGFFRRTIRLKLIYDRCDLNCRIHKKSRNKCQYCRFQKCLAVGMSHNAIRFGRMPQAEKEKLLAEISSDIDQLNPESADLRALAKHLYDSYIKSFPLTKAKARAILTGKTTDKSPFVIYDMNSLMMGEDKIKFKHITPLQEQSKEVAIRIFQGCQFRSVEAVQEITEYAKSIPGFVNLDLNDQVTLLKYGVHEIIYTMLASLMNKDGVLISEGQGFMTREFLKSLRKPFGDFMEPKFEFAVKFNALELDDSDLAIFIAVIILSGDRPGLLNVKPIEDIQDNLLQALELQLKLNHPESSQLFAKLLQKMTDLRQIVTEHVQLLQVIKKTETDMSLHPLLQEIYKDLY
Description: Compounds BPM18,708 and BPM19,107 were selected as representative analogues and tested in a PPAR in vitro cellular assay. Thiazolidinediones rosiglitazone and troglitazone were used as reference PPARγ agonists.
For transfection experiments, MCF-7 cells were cultured in six-well plates in 2 ml DMEM:F12 supplemented with 5% FBS. When cells were 50-60% confluent, siRNA duplexes and/or reporter gene constructs were transfected using OligofectAMINE reagent (Invitrogen). According to methods described in previous studies siRNAs were transfected in each well to give a final concentration of 70 nM. Cells were harvested in 48-56 h after transfection by manual scraping in lysis buffer (Promega). Whole cell extracts were frozen in liquid nitrogen for 30 s, vortexed by 30 s, and centrifuged to give lysates cell lysates from this experiment were analyzed for PPARγ protein by Western blot analysis. Relative intensities of the PPARγ protein were compared with a nonspecific band and results of three replicate studies were determined in the various treatment groups.
Whole cell lysates were extracted using Western sampling buffer. Protein samples were heated at 100 C for 5 min, separated on 10% SDS-PAGE and transferred to polyvinylidene difluoride (PVDF) membrane (Amersham Pharmacia Biotech, Piscataway, N.J.). […]

[2] = system: A549 (human lung adenocarcinoma epithelial); assay: Growth inhibition, MTT colorimetric assay, A549; format: cell-based; conditions: Homo sapiens, A549, 72 h; carcinoma; 3 days with drug; means of six values; unit inferred; read-out: IC50 A549
Summary of the method: as §2

[3] = system: U373 (human glioblastoma-astrocytoma); assay: Growth inhibition, MTT colorimetric assay, U373; format: cell-based; conditions: Homo sapiens, U373 MG, 72 h; glioma; 3 days with drug; means of six values; unit inferred; read-out: IC50 U373
Summary of the method: (§3)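 Reported IC50 values average six determinations, with standard error under 5% relative to the mean. Inhibition was scored by MTT after a 3-day culture with the drugs.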

[4] = system: PC3 (human prostate cancer); assay: Growth inhibition, MTT colorimetric assay, PC3; format: cell-based; conditions: Homo sapiens, 72 h; carcinoma; 3 days with drug; means of six values; unit inferred; read-out: IC50 PC3
Summary of the method: as §1

caspases 9 = assay: Caspases 9 activation in HL60 cells (LEHD reagent); format: cell-based, human; conditions: 48 hours, 1 μM, 0.1 μM and 0.01 μM
Text: 7223, using standard commercially available diagnostic kits (Calbiochem, USA). Assay reagents used were DEVD for caspases 3/7, […] for caspases 8, and LEHD for caspases 9. Moreover, colchicine was used as reference compound that induces this activity of caspases.

B16-F10 (mouse melanoma) = assay: Growth inhibition, MTT colorimetric assay, B16F10; format: cell-based; conditions: Mus musculus, B16-F10, 72 h; melanoma; 3 days with drug; means of six values; unit inferred; read-out: IC50 B16F10
Summary of the method: as §3

GL19 = assay: Growth inhibition, MTT colorimetric assay, GL19; format: cell-based; conditions: GL19, 72 h; 3 days with drug; means of six values; unit inferred; read-out: IC50 GL19
Summary of the method: as §1

Molecule Oc1ccc(CN(Cc2ccc(C(F)(F)F)cc2)Cc2ccc(O)c3ncccc23)c2cccnc12 [BPM18,708, 5,5′-(4-(trifluoromethyl)benzylazanediyl)bis(methylene)diquinolin-8-ol] has an IC50 (Host) of 97 nM, an IC50 (T98G (glioblastoma)) of 99 nM and a GI50 ([1]; 50% growth inhibition, read-out: GI50) of 310 ± 10 nM. For the same molecule, the MIC ([1]; lowest concentration at which all cells were killed, read-out: MIC) was 1 µM (≈ 0.489 µg/mL), the “PPARγ ligand/agonist activity in transactivation assays” value (PPARγ) was “ligands and agonists of PPARγ” and the IC50 [2] was 8 nM. The IC50 [3] was 44 nM, the IC50 [4] was 66 nM and the “activation of caspases 9” value (caspases 9) was “no effect”. The IC50 (B16-F10 (mouse melanoma)) was 92 nM and the IC50 (GL19) was 1240 nM.

Reference: patent US20110251238A1, “PPAR AGONIST COMPOSITIONS AND METHODS OF USE” (BIOPHARMED, priority 2008, published 2011)
